# Laboratory results published in patent US20090011103A1, “Composition comprising polyphenol” (Conopco, Inc. d/b/a Unilever, priority 2007, published 2009).
# How the values were obtained:
# [1] = system: mesenteric resistance arteries of SHR; assay: Reactivity of isolated arteries: dilator effect during contraction induced by 40 mmol/L K+; parameters: species or system Spontaneously Hypertensive Rats (SHR)
# Procedure: Segments of 2nd order mesenteric artery side branches were isolated from 14 weeks old male Spontaneously Hypertensive Rats (SHR). Two stainless-steel wires (diameter 40 μm) were inserted in the lumen of the arterial segments, which were then mounted in organ chambers between an isometric force transducer and a displacement device (Danish Myotechnology by J. P. Trading, Denmark). The organ chambers were filled with Krebs-Ringer bicarbonate solution which was maintained at 37° C. and continuously aerated with 95% O2 and 5% CO2. Before the actual experiments started, arterial segments were stretched to their individual optimal lumen diameter for mechanical performance, i.e. the diameter at which maximal contractile responses to noradrenaline (10 μmol/L) were obtained. In each experiment four second order mesenteric resistance arterial segments from one animal were mounted in individual organ chambers and studied in parallel. […]
# For the analysis of the acute effects of the mixtures on K+-induced contraction, increasing concentrations of the mixtures (0.1-100 umol/L) were administered on top of the stable contractions and were left in contact with the arterial segments for 5-7 min to make sure that either no effect or a stable effect was reached. […] In this way, the effects of different exposure times to the mixtures (7, 30 and 90 min) on K+-induced contraction, could be evaluated. […]
# Active wall tension (AWT) was calculated by subtracting the resting wall tension.
# All contractile responses (AWT in the presence of stimuli, solvent and mixes of ingredients) were next expressed as a percentage of the contractile response (AWT) to 10 uM noradrenaline at the end of the normalisation period, i.e. before exposure of the arterial segments to solvent or mixes of ingredients.
# Effects of increasing concentrations of the solvent and of the mixes (0.1 to 100 umol/L) during contractile responses to 40 mmol/L K+, were calculated as % change of the level of pre-contraction. […]
# [2] = meeting abstract of Experimental biology 2007; read-out: vasorelaxing properties, 50% dose; cited from earlier work
smiles,measurement,setting,value
"O=C(O)C=Cc1ccc(O)cc1 [p-coumaric acid, 3-(4-hydroxyphenyl)-2-prepenoic acid]",influence on the dilation of the arteries,"[1]; at a low concentration, by comparing the effect of different mixtures",significant influence on the dilation of the arteries
same,EC50,"[1]; isolated SHR mesenteric arteries, K+ (40 mmol/L) pre-contraction, deduced by comparing different mixtures (Plackett-Burman design), corrected for solvent, read-out: EC50 of dilation of the arteries",7.5 µM
same,concentration at which maximum dilatation was obtained,"[1]; isolated SHR mesenteric arteries, K+ (40 mmol/L) pre-contraction, mixtures 0.1-100 umol/L",100 µM
same,EC50,[2],0.03 µM
